Like-named read-outs stand apart in the source and are kept apart here.
Legend:
[1] = biological target: T1, plasma clot entrapped thrombin (Homo sapiens, UniProt P00734); assay: Inhibition of thrombin entrapped in plasma clot (methods M1, M3); type: biochemical; conditions: platelet-rich human plasma clot; Tos-Gly-Pro-Arg-pNA substrate
T1 construct: Here prothrombin is converted to thrombin; from tissue; host or cells: clot of recalcified platelet-rich human citrate plasma
Experimental: The plasma clot was obtained by the recalcification of platelet-rich human citrate plasma and fibrin gel by the coagulation of human fibrinogen with human thrombin Z-D-Arg-Gly-Arg-pNA and Tos Gly-Pro-Arg-pNA were used as substrates for measuring the activity of factor Xa and thrombin (methods M1-M5).
Preparation of Plasma Clot
a) Platelet-rich plasma (PRP) is prepared by centrifuging a 9:1 mixture of human blood and 3.8% aqueous sodium citrate solution (1/2) for 5 minutes at 240×g.
b) 200 μL of PRP are placed in each reaction vessel, 80 μL of 40 mM calcium chloride solution is added and the mixture is left to stand at room temperature for one hour. The plasma clot formed is rinsed mildly with 6×2 ml of 0.9% sodium chloride solution followed by 5 minute sedimentation to remove the dissolved enzymes (factor Xa and thrombin). The thrombin content of the washings is assayed as follows.
c) To 400 μL of washing liquid 100 μL of 1 mM Tos-Gly-Pro-Arg-pNA substrate solution is added and the mixture is incubated for 30 minutes at 37° C., then the reaction is stopped by the addition of 100 μL of 50% acetic acid. 150 μL portions of this mixture are transferred into the wells of the 96-well microtiter plate and the extinction is measured at 405 nm (ELISA READER SLT Laborinstrument GmbH, Austria). When the washing is successful, the extinction is less than 5% of the control
Assay of the Inhibition of Thrombin Entrapped in Plasma Clot
a) Peptide inhibitor solutions are prepared by the process described in Method M2, point a).
b) After draining the washing liquid, 400 μL of the peptide solution (3 parallel samples for each concentration) and 400 μL of buffer, serving as control, are placed on the clot (Method M1) and the mixture is incubated for 5 minutes at 37° C. Thereafter 100 μL of […] Tos-Gly-Pro-Arg-pNA substrate solution is added and incubation at 37° C. is continued for further 30 minutes, then the reaction is stopped by the addition of 100 μL of 50% acetic acid. The operation is continued as described in Method M2, point c).

[2] = biological target: T2, thrombin (Homo sapiens, UniProt P00734); assay: Thrombin time (TT) plasma clotting test; type: biochemical
T2 construct: The isolated active factor (e.g. thrombin, fXa) and its chromogen or fluorogen peptide-amide substrate are reacted
Experimental: Anticoagutant activity (i.e. inhibition of the proteolytic reactions in the process) is measured by anticoagulant tests, e.g. by the thrombin time (TT), activated partial thromboplastin time (APTT) and prothrombin time (PT) tests [E. J. W. Bovie et al; Mayo Clinic Laboratory Manual of Hemostasis; W. B. Sanuders Co., Philadelphia (1971)]. Plasma, inhibited in spontaneous coagulation, e.g. citrate-plasma, is made to coagulate and the required coagulation time is measured. Upon the action of anticoagulants the coagulation time is prolonged proportionally to the inhibition of the reaction(s) in the process. The anticoagulant effect can be characterized by the substance concentration required to double the coagulation time compared to the control (IC50). The effect of anticoagulants on individual coagulant proteases is measured by the amidolytic method [R. Lottenberg et al., Methods in Enzymol. 80, 341 (1981); G. Cleason, Blood Coagulation and Fibrinolysis 5, 411 (1994)]. The isolated active factor (e.g. thrombin, fXa) and its chromogen or fluorogen peptide-amide substrate are reacted in the presence or absence of the inhibitor, resp. The enzyme inhibiting action is characterized by the inhibitory constant (IC50) measured during amidolysis.
In the TT test coagulation is initiated by the thrombin added to the citrate plasma. In the system 22 pmol/mL of thrombin is functioning and in the presence of plasma components its inhibition can be measured on the fibrinogen (one of the natural substrates of thrombin) present In the APTT and PT tests the full coagulation process is made to proceed. Depending on the activator fX is activated by the extrinsic or intrinsic pathway. The generated fXa activates prothrombin to thrombin which, in turn, triggers plasma coagulation. In the test the coagulation time is prolonged if the enzymes or one of them is inhibited by the inhibitor. In the APTT and PT tests at most 40 pmole/ml Xa is generated (this is the full amount of factor X present in both systems) while 150 pmole/ml (APTT) and 350 pmole/ml (PT) are generated from thrombin [B Kaiser et al., Thromb. Res. 65, 157 (1992)].
The in vitro anticoagulant effect of the compounds of general formula (I) was measured by the prothrombin time (PT), activated partial thromboplastin time (APTT) and thrombin time (TT) tests [D. Bagdy et at., Thromb. Haemost. 67, 325 (1992)]. The Xa-factor-inhibiting effect of the compounds was also determined by using the Bz-Ile-Glu-Gly-Arg-pNA chromogen substrate (see method M6).

[3] = system: thrombin-induced blood platelet aggregation; assay: Ex vivo inhibition of thrombin-induced blood platelet aggregation (PAI) in rabbits after p.o. dosing; design: species or system New Zealand white rabbits; conditions: p.o. 5 mg/kg
Experimental: The anticoagulant and platelet aggregation inhibiting effect of the compounds of general formula (I) was studied In New Zealand white rabbits ex vivo according to D. Bagdy et al [Thromb. Haemost 67. 357 (1992). The compounds were dissolved in buffered isotonic saline solution and administered i.v. (0,04-5.0 mg/kg) or by infusion (0.25-5.0 mg/kg/h) or subcutaneously (0.5-6.0 mg/kg) or p.o. (2.5-20 mg/kg). The effect of the compounds was detectable already within 30 minutes following p.o. administration, peak values were attained after 60-180 minutes and the therapeutic level was maintained dose-dependently for 3→6 hours.
The in vivo effect of D-cHga Pro-Arg-H (1) is presented in detail in Tables 5 and 6. The corresponding values of C1 are listed as controls. The compound was administered p.o. in doses of 5 mg/kg. The blood samples drawn from the caudal vein in every 30-60 minutes were analyzed. The whole blood clotting time (WBCT) and the inhibition of thrombin-induced blood platelet aggregation (PAI) were determined. The activated partial thromboplastin time (APTT) and the thrombin time (TT) in the citrate plasma obtained from the blood sample were also measured. The APTT and TT values are compiled in Table 5 and the WBCT and PAI values in Table 6.

[4] = Table 2, concentration doubling clotting time, read-out: A: IC50, TT

Compound	IC50 [1]	IC50 ([2]; Table 1, concentration doubling clotting time, read-out: B: IC50, TT)	IC50 [2, 4]	IC50 ([2]; read-out: concentration doubling the clotting time in the TT test)	PAI(%) ([3]; 0 min)	PAI(%) ([3]; 30 min)	PAI(%) ([3]; 45 min)	PAI(%) ([3]; 60 min)	PAI(%) ([3]; 90 min)	PAI(%) ([3]; 120 min)	PAI(%) ([3]; 180 min)	PAI(%) ([3]; 240 min)
CN[C@H](Cc1ccccc1)C(=O)N1CCC[C@H]1C(=O)N[C@H](C=O)CCCNC(=N)N [Compound C1, D-MePhe-Pro-Arg-H]	380 nM	90 nM	90 nM	87 nM	0%	52.8 ± 14.7%	58.4 ± 15.6%	54.2 ± 11.6%	83.2 ± 8.9%	75.2 ± 12.3%	47.5 ± 20.9%	32.2 ± 16.0%
N=C(N)NCCC[C@@H](C=O)NC(=O)[C@H]1CCCN1C(=O)C(O)C1CCCCCC1.N=C(N)NCCC[C@@H](C=O)NC(=O)[C@H]1CCCN1C(=O)C(O)C1CCCCCC1.O=S(=O)(O)O (stereo partly drawn) [Compound 1, D-2-Cycloheptyl-2-hydroxyacetyl-L-prolyl-L-arginine aldehyde hemisulfate]	520 nM	–	110 nM	–	0%	71.0 ± 19.4%	74.0 ± 13.9%	91.0 ± 4.5%	93.0 ± 3.5%	92.4 ± 6.5%	71.6 ± 19.8%	49.4 ± 21.5%

Reference: patent US6121241A, “Anticoagulant peptide aldehyde derivatives” (Gyogyszerkutato Intezet Kft., priority 1996, dated 2000)
